{"source": "patent US20240197739A1", "about": "(Sanofi, priority 2021, published 2024)", "system": "subcutaneous MCF7-Y537S human breast cancer cell line xenograft", "details": "for Tumor volume changes from baseline: Median / Regressions Complete / Regressions Partial / Median % of regressions on day 22 / Unscheduled death (Day of death): PO; for Tumor volume changes from baseline: Median: n = 7; for Anti-tumor effect on tumor growth (statistical significance versus control): two-way ANOVA, contrast analysis; for Regressions Complete: animals with complete regression / group of 7; for Regressions Complete / Regressions Partial / Unscheduled death (Day of death): 22 days; for Regressions Partial: animals with partial regression / group of 7; for ΔT/ΔC in % at day 22: ratio of median tumor volume changes from baseline, treated vs control; for ΔT/ΔC in % at day 22 / Median % of regressions on day 22 / Biological Interpretation: day 22; for Biological Interpretation: based on ΔT/ΔC and statistical analysis; for Unscheduled death (Day of death): deaths / group of 7", "protocol": "Anti-tumor efficacy was evaluated by tumor volume measurement.\nFemale BALB/c nude mice were obtained from Shanghai Sino-British SIPPR/BK Laboratory Animal Co., LTD (Shanghai, CHINA). Animals were allowed to acclimate for at least four days before the study enrollment. Mice were 6 to 8 weeks old and weighed between 18 and 24 grams at the beginning of the treatments. These animals were housed under conditions outlined in the guidelines approved by the Institutional Animal Care and Use Committee (IACUC) of WuXi AppTec following the guidance of the Association for Assessment and Accreditation of Laboratory Animal Care (AAALAC).\nParental MCF7 cells were obtained from the American Type Culture Collection (ATCC® HTB-22™). MCF7-Y537S (ESR1) cell line was MCF7 cells expressing the ER. Y537S variant that was generated by Sanofi Biology Discovery Group. Y537S mutation was introduced in ESR1 construct (GenBank NM_000125.3) by site directed mutagenesis (Toy W. et al., Cancer Discovery, 2017, 7, 277-287). The construct was transfected in MCF7 cells, which were selected for their growth in absence of estradiol. MCF-Y537S is an ESR1 mutation that confers estrogen-independent activity to ERα(Estrogen Receptor alpha) and contributes to endocrine resistant disease (Robinson D.R. et al., Nat Genet., 2013, 45 (12), 1446-1451). The cells were grown in Eagle's Minimum Essential Medium (EMEM) supplemented with 10% fetal bovine serum (FBS), human Insulin, in 5% CO2 at 37° C. The cells were harvested in 0.25% Trypsin EDTA and washed by Phosphate Buffered Saline (PBS) and re-suspended in PBS with 75% Matrigel. The cells (20×10^6 cells/per mouse) were subcutaneously (SC) implanted into the right flank of female nude mice.\nWhen the MCF7-Y537S tumors were established, the tumors were reserved as tumor stocks for fragment implantation. The tumors were serially propagated through fragment tissue transplantation subcutaneously. The fragment tumor tissues were subcutaneously implanted into the right flank of female nude mice. Twenty-eight mice were assigned in this experiment.\nThe animals required for experiment (plus extra) were pooled and implanted with MCF7-Y537S tumor fragment tissues. […] Animal body weight was assessed daily.\nThe dosages are expressed in mg/kg and based on daily body weight per animal. Vehicle treated animals were used as controls. Mice were checked daily for adverse clinical reactions. Individual mice were weighed daily until the end of the experiment. Mice would be euthanized when morbid or weight loss ≥20% was observed. Tumors were measured with a caliper twice weekly until final sacrifice. When a tumor size reached approximately 2000 mm^3 or when there are animal health issues (40% area of a tumor ulcerated), animals were euthanized, and date of death recorded. Solid tumor volumes were estimated from two-dimensional tumor measurements and calculated according to the following equation: […]\nA dosage producing either 15% body weight loss during 3 consecutive days for an individual mouse, 20% body weight loss during 1 day, or 10% or more drug related deaths, was considered an excessively toxic dosage, unless under certain circumstances bodyweight loss or animal death can be considered non-drug related. […] Animal body weight included the tumor weight.\nThe primary efficacy end points include tumor volume changes from baseline summarized by the ratio of medians of tumor volume changes from baseline between the treated and control groups (ΔT/ΔC). Changes in tumor volume for each treated (T) and control (C) group were calculated for each animal on each day by subtracting the tumor volume on the day of first treatment (staging day) from the tumor volume on the specified observation day.", "key": {"[1]": {"details": "Day 4, amcenestrant 20 mg/kg BID, ribociclib 100 mg/kg QD"}, "[2]": {"details": "Day 8, amcenestrant 20 mg/kg BID, ribociclib 100 mg/kg QD"}, "[3]": {"details": "Day 11, amcenestrant 20 mg/kg BID, ribociclib 100 mg/kg QD"}, "[4]": {"details": "Day 15, amcenestrant 20 mg/kg BID, ribociclib 100 mg/kg QD"}, "[5]": {"details": "Day 22, amcenestrant 20 mg/kg BID, ribociclib 100 mg/kg QD"}, "[6]": {"details": "amcenestrant 20 mg/kg BID, ribociclib 100 mg/kg QD, PO for 22 days"}, "[7]": {"details": "amcenestrant 20 mg/kg BID, ribociclib 100 mg/kg QD"}, "[8]": {"details": "PO for 22 days, amcenestrant 20 mg/kg BID, ribociclib 100 mg/kg QD"}}, "note": "Like-named read-outs stand apart in the source and are kept apart here."}
{"compound": "O=C(O)c1ccc2c(c1)CCCC(c1ccc(Cl)cc1Cl)=C2c1ccc(O[C@H]2CCN(CCCF)C2)cc1", "note": "[SAR439859, 6-(2,4-dichlorophenyl)-5-[4-[(3S)-1-(3-fluoropropyl)pyrrolidin-3-yl]oxyphenyl]-8,9-dihydro-7H-benzo[7]annulene-2-carboxylic acid]", "values": [{"measurement": "Tumor volume changes from baseline: Median", "setting": "[1]", "value": 43.0, "unit": "mm^3"}, {"measurement": "Tumor volume changes from baseline: Median", "setting": "[2]", "value": 121.0, "unit": "mm^3"}, {"measurement": "Tumor volume changes from baseline: Median", "setting": "[3]", "value": 214.0, "unit": "mm^3"}, {"measurement": "Tumor volume changes from baseline: Median", "setting": "[4]", "value": 360.0, "unit": "mm^3"}, {"measurement": "Tumor volume changes from baseline: Median", "setting": "Day 18, amcenestrant 20 mg/kg BID, ribociclib 100 mg/kg QD", "value": 392.0, "unit": "mm^3"}, {"measurement": "Tumor volume changes from baseline: Median", "setting": "[5]", "value": 501.0, "unit": "mm^3"}, {"measurement": "Anti-tumor effect on tumor growth (statistical significance versus control)", "setting": "[6]", "value": "no statistically significant anti-tumor effect"}, {"measurement": "Regressions Complete", "setting": "[7]", "value": "0/7"}, {"measurement": "Regressions Partial", "setting": "[7]", "value": "0/7"}, {"measurement": "ΔT/ΔC in % at day 22", "setting": "[8]", "value": 47, "unit": "%"}, {"measurement": "Median % of regressions on day 22", "setting": "[7]", "value": 0, "unit": "%"}, {"measurement": "Biological Interpretation", "value": "Inactive*"}, {"measurement": "Unscheduled death (Day of death)", "setting": "[7]", "value": "0/7"}]}
{"compound": "CN(C)C(=O)c1cc2cnc(Nc3ccc(N4CCNCC4)cn3)nc2n1C1CCCC1.O=C(O)CCC(=O)O", "note": "[ribociclib, 7-cyclopentyl-N,N-dimethyl-2-[[5-(1-piperazinyl)-2-pyridinyl]amino]-7H-pyrrolo[2,3-d]pyrimidine-6-carboxamide]", "values": [{"measurement": "Tumor volume changes from baseline: Median", "setting": "[1]", "value": 44.0, "unit": "mm^3"}, {"measurement": "Tumor volume changes from baseline: Median", "setting": "[2]", "value": 103.0, "unit": "mm^3"}, {"measurement": "Tumor volume changes from baseline: Median", "setting": "[3]", "value": 183.0, "unit": "mm^3"}, {"measurement": "Tumor volume changes from baseline: Median", "setting": "[4]", "value": 292.0, "unit": "mm^3"}, {"measurement": "Tumor volume changes from baseline: Median", "setting": "[5]", "value": 423.0, "unit": "mm^3"}, {"measurement": "Body weight loss", "setting": "[6]", "value": "no significant body weight loss"}, {"measurement": "Tolerability", "setting": "[6]", "value": "well-tolerated"}, {"measurement": "Anti-tumor effect on tumor growth (statistical significance versus control)", "setting": "[6]", "value": "no statistically significant anti-tumor efficacy"}, {"measurement": "Regressions Complete", "setting": "[7]", "value": "0/7"}, {"measurement": "Regressions Partial", "setting": "[7]", "value": "0/7"}, {"measurement": "ΔT/ΔC in % at day 22", "setting": "[8]", "value": 40, "unit": "%"}, {"measurement": "Median % of regressions on day 22", "setting": "[7]", "value": 0, "unit": "%"}, {"measurement": "Biological Interpretation", "value": "Inactive*"}, {"measurement": "Unscheduled death (Day of death)", "setting": "[7]", "value": "0/7"}]}
